Tests used:
[1] = target: Adenosine A2A receptor (Tag-lite Adenosine A2A labeled cells) (Homo sapiens (Human), UniProt P29274); assay: A2A Tag-lite HTRF assay (fluorescent ligand displacement); settings: Red antagonist fluorescent ligand 12.5 nM, one-site competitive binding model, read-out: A2A_Ki
From the text: Example C. A2A Tag-Lite® HTRF Assay
The final concentration of DMSO was 1%.

[2] = target: human adenosine A2B receptor (Homo sapiens (Human), UniProt P29275); assay: Adenosine A2B Receptor Cyclic AMP GS Assay; type: cell-based; settings: HEK-293 cells expressing human A2B; agonist NECA 12 nM; cAMP accumulation by FRET; read-out: A2B_cAMP_EC50
Method: Example B. Adenosine A2B Receptor Cyclic AMP GS Assay Stably transfected HEK-293 cells expressing the human adenosine A2B receptor (Perkin Elmer) were maintained in MEM culture medium with 10% FBS and 100 μg/ml Geneticin (Life Technologies). 18 to 24 hours prior to assay, geneticin was removed from culture. The cisbio cAMP-GS Dynamic kit utilizing the FRET (Fluorescence Resonance Energy Transfer) technology was used to measure cAMP accumulation in the cells. Compounds of the present disclosure at an appropriate concentration were mixed with 10000 cells/well in white 96 well half area plates (Perkin Elmer) for 30 min at room temperature gently shaking. Agonist, NECA (R&D Technologies) at 12 nM was added to each well for 60 min at room temperature gently shaking. Detection reagents, d2-labeled cAMP (acceptor) and anti-cAMP cryptate (donor) were added to each well for 60 min at RT gently shaking. Plates were read on Pherastar (BMG Labtech), fluorescence ratio 665/620 was calculated and EC50 determination was performed by fitting the curve of percent of control versus the log of the compound concentration using GraphPad Prism.

Chain of Adenosine A2A receptor (Tag-lite Adenosine A2A labeled cells) (P29274 whole entry): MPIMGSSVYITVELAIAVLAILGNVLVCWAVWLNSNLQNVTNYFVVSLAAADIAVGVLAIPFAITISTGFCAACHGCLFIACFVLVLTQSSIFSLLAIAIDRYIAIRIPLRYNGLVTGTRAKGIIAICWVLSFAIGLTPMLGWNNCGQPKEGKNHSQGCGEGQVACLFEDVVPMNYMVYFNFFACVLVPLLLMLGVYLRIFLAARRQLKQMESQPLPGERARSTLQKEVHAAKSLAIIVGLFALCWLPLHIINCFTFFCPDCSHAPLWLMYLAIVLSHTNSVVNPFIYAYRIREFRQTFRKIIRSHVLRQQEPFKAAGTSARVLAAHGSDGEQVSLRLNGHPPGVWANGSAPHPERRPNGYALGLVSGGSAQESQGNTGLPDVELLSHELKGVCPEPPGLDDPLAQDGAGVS
Chain of human adenosine A2B receptor (P29275 whole entry): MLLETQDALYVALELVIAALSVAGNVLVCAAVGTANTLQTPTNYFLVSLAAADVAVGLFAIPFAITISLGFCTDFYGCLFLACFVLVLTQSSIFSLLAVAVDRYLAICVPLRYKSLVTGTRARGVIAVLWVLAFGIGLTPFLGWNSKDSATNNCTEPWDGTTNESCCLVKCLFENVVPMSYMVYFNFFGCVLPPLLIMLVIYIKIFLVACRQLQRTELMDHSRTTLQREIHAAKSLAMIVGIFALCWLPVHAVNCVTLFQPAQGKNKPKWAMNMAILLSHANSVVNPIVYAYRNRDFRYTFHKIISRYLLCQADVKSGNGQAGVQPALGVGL

| SMILES | Ki [1] [nM] | EC50 [2] [nM] |
| --- | --- | --- |
| CCCCCn1c2cc(-c3cnn(Cc4cnc5ccsc5c4)c3)[nH]c2c(=O)n2c(C)nnc12 [Example 4, 3-Methyl-9-pentyl-7-(1-(thieno[3,2-b]pyridin-6-ylmethyl)-1H-pyrazol-4-yl)-6,9-dihydro-5H-pyrrolo[3,2-d][1,2,4]triazolo[4,3-a]pyrimidin-5-one] | < 10 | < 10 |
| CCCCCn1c2cc(-c3cnn(Cc4cnc5cccnc5c4)c3)[nH]c2c(=O)n2c(C)nnc12 [Example 6, 7-(1-((1,5-Naphthyridin-3-yl)methyl)-1H-pyrazol-4-yl)-3-methyl-9-pentyl-6,9-dihydro-5H-pyrrolo[3,2-d][1,2,4]triazolo[4,3-a]pyrimidin-5-one] | < 10 | 10 to 100 |
| CCCCCn1c2cc(-c3cnn(Cc4cnc5cnn(C)c5c4)c3)[nH]c2c(=O)n2c(C)nnc12 [Example 7, 3-Methyl-7-(1-((1-methyl-1H-pyrazolo[4,3-b]pyridin-6-yl)methyl)-1H-pyrazol-4-yl)-9-pentyl-6,9-dihydro-5H-pyrrolo[3,2-d][1,2,4]triazolo[4,3-a]pyrimidin-5-one] | < 10 | 10 to 100 |
| CCCCCn1c2cc(-c3ccc(S(=O)(=O)Nc4ccc(C)cc4)cc3)[nH]c2c(=O)n2c(C)nnc12 [Example 11, 4-(3-Methyl-5-oxo-9-pentyl-6,9-dihydro-5H-pyrrolo[3,2-d][1,2,4]triazolo[4,3-a]pyrimidin-7-yl)-N-p-tolylbenzenesulfonamide] | 10 to 100 |  |
| CCCCCn1c2cc(-c3cnn(Cc4cnc5cccnc5c4)c3)[nH]c2c(=O)n2c(C(F)(F)F)nnc12 [Example 12, 7-(1-((1,5-Naphthyridin-3-yl)methyl)-1H-pyrazol-4-yl)-9-pentyl-3-(trifluoromethyl)-6,9-dihydro-5H-pyrrolo[3,2-d][1,2,4]triazolo[4,3-a]pyrimidin-5-one] | < 10 | < 10 |
| CCCCCn1c2cc(-c3cnn(C4CN(c5nccc(N)n5)C4)c3)[nH]c2c(=O)n2c(C)nnc12 [Example 21, 7-(1-(1-(4-Aminopyrimidin-2-yl)azetidin-3-yl)-1H-pyrazol-4-yl)-3-methyl-9-pentyl-6,9-dihydro-5H-pyrrolo[3,2-d][1,2,4]triazolo[4,3-a]pyrimidin-5-one] | < 10 | 10 to 100 |
| CCCCCn1c2cc(-c3cnn(C4CN(c5nccc(NCCO)n5)C4)c3)[nH]c2c(=O)n2c(C)nnc12 [Example 22, 7-(1-(1-(4-(2-Hydroxyethylamino)pyrimidin-2-yl)azetidin-3-yl)-1H-pyrazol-4-yl)-3-methyl-9-pentyl-6,9-dihydro-5H-pyrrolo[3,2-d][1,2,4]triazolo[4,3-a]pyrimidin-5-one] | < 10 | 10 to 100 |
| CCCCCn1c2cc(-c3cnn(C4CN(c5nccc(NC)n5)C4)c3)[nH]c2c(=O)n2c(C)nnc12 [Example 23, 3-Methyl-7-(1-(1-(4-(methylamino)pyrimidin-2-yl)azetidin-3-yl)-1H-pyrazol-4-yl)-9-pentyl-6,9-dihydro-5H-pyrrolo[3,2-d][1,2,4]triazolo[4,3-a]pyrimidin-5-one] | < 10 | 10 to 100 |
| CCCCn1c2cc(-c3cnn(C4CN(c5ncccn5)C4)c3)[nH]c2c(=O)n2c(C)nnc12 [Example 24, 9-Butyl-3-methyl-7-(1-(1-(pyrimidin-2-yl)azetidin-3-yl)-1H-pyrazol-4-yl)-6,9-dihydro-5H-pyrrolo[3,2-d][1,2,4]triazolo[4,3-a]pyrimidin-5-one] | < 10 | 10 to 100 |
| CCCCn1c2cc(-c3cnn(C4CN(c5nccc(C#N)n5)C4)c3)[nH]c2c(=O)n2c(C)nnc12 [Example 25, 2-(3-(4-(9-Butyl-3-methyl-5-oxo-6,9-dihydro-5H-pyrrolo[3,2-d][1,2,4]triazolo[4,3-a]pyrimidin-7-yl)-1H-pyrazol-1-yl)azetidin-1-yl)pyrimidine-4-carbonitrile] | < 10 | 10 to 100 |
| CCCCn1c2cc(-c3cnn(C4CN(c5nccc(C)n5)C4)c3)[nH]c2c(=O)n2c(C)nnc12 [Example 26, 9-Butyl-3-methyl-7-(1-(1-(4-methylpyrimidin-2-yl)azetidin-3-yl)-1H-pyrazol-4-yl)-6,9-dihydro-5H-pyrrolo[3,2-d][1,2,4]triazolo[4,3-a]pyrimidin-5-one] | < 10 | 10 to 100 |
| CCCCn1c2cc(-c3cnn(C4CN(c5nccc(OC)n5)C4)c3)[nH]c2c(=O)n2c(C)nnc12 [Example 27, 9-Butyl-7-(1-(1-(4-methoxypyrimidin-2-yl)azetidin-3-yl)-1H-pyrazol-4-yl)-3-methyl-6,9-dihydro-5H-pyrrolo[3,2-d][1,2,4]triazolo[4,3-a]pyrimidin-5-one] | < 10 | 10 to 100 |

Results, then the compound that gave them:

| Ki [1] [nM] | EC50 [2] [nM] | SMILES |
| --- | --- | --- |
| 100 to 1000 |  | CCCCCn1c2cc[nH]c2c(=O)n2c(C)nnc12 [Example 1, 3-Methyl-9-pentyl-6,9-dihydro-5H-pyrrolo[3,2-d][1,2,4]triazolo[4,3-a]pyrimidin-5-one] |
| < 10 | 10 to 100 | CCCCCn1c2cc(-c3cnn(Cc4cncc(Cl)c4)c3)[nH]c2c(=O)n2c(C)nnc12 [Example 2, 7-(1-((5-Chloropyridin-3-yl)methyl)-1H-pyrazol-4-yl)-3-methyl-9-pentyl-6,9-dihydro-5H-pyrrolo[3,2-d][1,2,4]triazolo[4,3-a]pyrimidin-5-one] |
| < 10 | < 10 | CCCCCn1c2cc(-c3cnn(Cc4cncc(C)c4)c3)[nH]c2c(=O)n2c(C)nnc12 [Example 3, 3-Methyl-7-(1-((5-methylpyridin-3-yl)methyl)-1H-pyrazol-4-yl)-9-pentyl-6,9-dihydro-5H-pyrrolo[3,2-d][1,2,4]triazolo[4,3-a]pyrimidin-5-one] |
| < 10 | 10 to 100 | CCCCCn1c2cc(-c3cnn(Cc4ccn5ccnc5c4)c3)[nH]c2c(=O)n2c(C)nnc12 [Example 5, 7-(1-(Imidazo[1,2-a]pyridin-7-ylmethyl)-1H-pyrazol-4-yl)-3-methyl-9-pentyl-6,9-dihydro-5H-pyrrolo[3,2-d][1,2,4]triazolo[4,3-a]pyrimidin-5-one] |
| < 10 | 10 to 100 | CCCCCn1c2cc(-c3cnn(Cc4cccnc4)c3)[nH]c2c(=O)n2c(C)nnc12 [Example 8, 3-Methyl-9-pentyl-7-(1-(pyridin-3-ylmethyl)-1H-pyrazol-4-yl)-6,9-dihydro-5H-pyrrolo[3,2-d][1,2,4]triazolo[4,3-a]pyrimidin-5-one] |
| < 10 | 10 to 100 | CCCCCn1c2cc(-c3cnn(Cc4cncc(F)c4)c3)[nH]c2c(=O)n2c(C)nnc12 [Example 9, 7-(1-((5-Fluoropyridin-3-yl)methyl)-1H-pyrazol-4-yl)-3-methyl-9-pentyl-6,9-dihydro-5H-pyrrolo[3,2-d][1,2,4]triazolo[4,3-a]pyrimidin-5-one] |
| < 10 |  | CCCCCn1c2cc(-c3cnn(Cc4ccccc4)c3)[nH]c2c(=O)n2c(C)nnc12 [Example 10, 7-(1-Benzyl-1H-pyrazol-4-yl)-3-methyl-9-pentyl-6,9-dihydro-5H-pyrrolo[3,2-d][1,2,4]triazolo[4,3-a]pyrimidin-5-one] |
| 10 to 100 |  | CCCCCn1c2c(Br)c[nH]c2c(=O)n2c(C)nnc12 [Example 13, 8-Bromo-3-methyl-9-pentyl-6,9-dihydro-5H-pyrrolo[3,2-d][1,2,4]triazolo[4,3-a]pyrimidin-5-one] |
| 100 to 1000 |  | CCCCCn1c2c(C)c[nH]c2c(=O)n2c(C)nnc12 [Example 14, 3,8-Dimethyl-9-pentyl-6,9-dihydro-5H-pyrrolo[3,2-d][1,2,4]triazolo[4,3-a]pyrimidin-5-one] |
| 100 to 1000 |  | CCCCCn1c2c(-c3ccccc3)c[nH]c2c(=O)n2c(C)nnc12 [Example 15, 3-Methyl-9-pentyl-8-phenyl-6,9-dihydro-5H-pyrrolo[3,2-d][1,2,4]triazolo[4,3-a]pyrimidin-5-one] |
| 100 to 1000 |  | CCCCCn1c2c(C#N)c[nH]c2c(=O)n2c(C)nnc12 [Example 16, 3-Methyl-5-oxo-9-pentyl-6,9-dihydro-5H-pyrrolo[3,2-d][1,2,4]triazolo[4,3-a]pyrimidine-8-carbonitrile] |
| 100 to 1000 |  | CCCCCn1c2c(-c3cnn(Cc4ccccc4)c3)c[nH]c2c(=O)n2c(C)nnc12 [Example 17, 8-(1-Benzyl-1H-pyrazol-4-yl)-3-methyl-9-pentyl-6,9-dihydro-5H-pyrrolo[3,2-d][1,2,4]triazolo[4,3-a]pyrimidin-5-one] |
| 10 to 100 |  | CCCCCn1c2cc[nH]c2c(=O)n2c(C)cnc12 [Example 18, 7-Methyl-4-pentyl-1H-imidazo[1,2-a]pyrrolo[3,2-d]pyrimidin-9(4H)-one] |
| < 10 | 10 to 100 | CCCCCn1c2cc(-c3cnn(C4CN(c5ncccn5)C4)c3)[nH]c2c(=O)n2c(C)nnc12 [Example 19, 3-Methyl-9-pentyl-7-(1-(1-(pyrimidin-2-yl)azetidin-3-yl)-1H-pyrazol-4-yl)-6,9-dihydro-5H-pyrrolo[3,2-d][1,2,4]triazolo[4,3-a]pyrimidin-5-one] |
| < 10 | 10 to 100 | CCCCCn1c2cc(-c3cnn(C4CN(c5nccc(C#N)n5)C4)c3)[nH]c2c(=O)n2c(C)nnc12 [Example 20, 2-(3-(4-(3-Methyl-5-oxo-9-pentyl-6,9-dihydro-5H-pyrrolo[3,2-d][1,2,4]triazolo[4,3-a]pyrimidin-7-yl)-1H-pyrazol-1-yl)azetidin-1-yl)pyrimidine-4-carbonitrile] |

— patent US11220510B2, “Pyrrole tricyclic compounds as A2A / A2B inhibitors” (Incyte Corporation, priority 2018, dated 2022)
